One data set deals with T1, m1 receptor (Homo sapiens, UniProt P11229).
T1 construct: expressed in transfected cells; host or cells: NIH 3T3 (ATCC CRL 1658)
T1 sequence (P11229 1-460): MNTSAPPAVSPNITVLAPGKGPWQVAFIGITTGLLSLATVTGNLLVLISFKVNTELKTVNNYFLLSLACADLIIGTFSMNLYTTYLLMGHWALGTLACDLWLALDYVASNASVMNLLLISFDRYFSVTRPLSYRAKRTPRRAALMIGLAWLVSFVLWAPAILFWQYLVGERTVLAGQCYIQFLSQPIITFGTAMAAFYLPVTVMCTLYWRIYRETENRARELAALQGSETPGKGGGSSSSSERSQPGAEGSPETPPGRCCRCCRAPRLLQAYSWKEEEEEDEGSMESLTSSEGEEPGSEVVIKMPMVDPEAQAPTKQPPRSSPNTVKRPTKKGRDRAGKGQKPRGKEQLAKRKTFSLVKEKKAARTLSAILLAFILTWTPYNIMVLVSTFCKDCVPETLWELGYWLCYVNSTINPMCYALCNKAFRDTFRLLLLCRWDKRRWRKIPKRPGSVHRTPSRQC
Put plainly: R-SAT / NIH 3T3 cells transfected with m1 muscarinic receptor. The data set is classed as cell-based. The note with it: NIH3T3; m1; compound at 1.5 μM; maximum = response to 10 μM carbachol; read-out: Cellular response as a percentage of the maximum response of the cells. The method, then: Cell amplification is detected as increased levels of a marker also expressed by the cells.
The cells were treated with trypsin-EDTA, spun down and plated at 2×10^6 per 15 cm dish in 20 m1 of DMEM containing 10% calf serum.
(§1) On day one, the cells were transfected using the Superfect transfection reagent (available from Qiagen, Valencia, Calif.) in accordance with the manufacturer's instructions. Receptor DNA, β-gal DNA (pSI-β-galactosidase available from Promega, Madison, Wis.), chimeric Gq-i5 DNA for the m2 and m4 receptor subtype assays, and salmon sperm DNA (available from Sigma, St. Louis, […].) as filler to a total of 20 μg DNA was added per plate. Prior to addition to the plates, 60 μl Superfect was added to the DNA and mixed thoroughly by pipetting up and down several times. The mixture was incubated at room temperature for 10-15 minutes. The media were aspirated, and 12 ml fresh DMEM containing 10% calf serum and 50 units/m1 penicillin/streptomycin was added to the plates. The DNA-Superfect solution was mixed once more with a pipette and added to the plate which was swirled to distribute the DNA mixture evenly over the surface. The cells were incubated overnight at 37° C. and 5% CO2. After incubation, the media were aspirated and the plates were rinsed once with a 15 m1 volume of Hank's Buffered Saline. The plates were swirled to ensure thorough rinsing. 20 m1 fresh DMEM supplemented with 10% calf serum and 50 units/m1 penicillin/streptomycin was added to the plates. The cells were incubated for 24-48 hours until the plates were 100% confluent.
(§2) Assay of NIH 3T3 cells transfected with muscarinic receptor subtypes (general procedure) DMEM containing 2% Cyto-SF3 was heated at 37° C. in a water bath under sterile conditions. Sterile working stock solutions of test compounds to be assayed were prepared by diluting the compounds in DMEM to 8× the final concentration for testing. The compound (carbachol) to be included in the assay as a positive control was also diluted in DMEM to 8× the final concentration. 50 μL of the DMEM containing 2% Cyto-SF3 was added to each well of 96-well microtiter plates under sterile conditions. Then, 16 of compound solutions were added to the top wells of the plates, and dilution of the solutions was performed by taking 16 μl of the compound solutions from the top wells and pipetting them into the next row of wells. This procedure was repeated with each subsequent row of wells, except that 50 μl medium alone was added to the baseline control wells (the wells that contain medium and cells, but not test compounds) and plate control wells (wells containing medium, but not test compounds and cells). The plates were then placed in an incubator at 37° C. to equilibrate temperature and pH.
When the cell cultures had reached 100% confluence, the medium was aspirated and each plate was rinsed with 15 m1 Hank's Buffered Saline (HBS). The cells were left in the incubator for about 10-15 minutes until the HBS had turned slightly yellow. The HBS was then aspirated and 1 m1 trypsin was added to each plate and swirled so as to completely cover the plates. The edges of the plates were gently rapped several times to loosen the cells. After the cells had been dislodged from the surface, 8 m1 DMEM containing 10% calf serum and 50 units/m1 penicillin and 50 units/m1 streptomycin was added to inhibit the trypsin. The plates were rinsed with this medium, and the cells were pipetted into a tube. The cells were centrifuged at 1000 rpm for 5-10 min. in an IEC Centra CL2 centrifuge (produced by Sorvall). Afterwards, the medium was carefully aspirated so as not to dislodge the cells. The cell pellet was suspended in 1600 μl DMEM containing 10% calf serum and 50 units/m1 penicillin and 50 units/m1 streptomycin, after which 20 m1 DMEM supplemented with 2% Cyto-SF3 was added. 50 μl aliquots of this cell suspension was added to the wells of the 96-well microtiter plates prepared above (except for the plate control wells).

The next data set has as its target T2, m3 receptor (Homo sapiens, UniProt P20309).
T2 construct: expressed in transfected cells; host or cells: NIH 3T3 (ATCC CRL 1658)
Put plainly: R-SAT / NIH 3T3 cells transfected with m3 muscarinic receptor. The data set is classed as cell-based. The note with it: NIH3T3; m3; compound at 1.5 μM; maximum = response to 10 μM carbachol; read-out: Cellular response as a percentage of the maximum response of the cells.
Excerpt: (§3) A particularly convenient functional assay system is the receptor selection and amplification assay disclosed in U.S. Pat. No. 5,707,798 describing a method of screening for bioactive compounds by utilizing the ability of cells transfected with receptor DNA, e.g. coding for the different muscarinic subtypes, to amplify in the presence of a ligand of the receptor. Cell amplification is detected as increased levels of a marker also expressed by the cells.
(§4) Transfection of cells with muscarinic receptor DNAs (general procedure) NIH 3T3 cells (available from the American Type Culture Collection as ATCC CRL 1658) were grown at 37° C. in a humidified atmosphere (5% CO2) incubator in Dulbecco's modified Eagle's medium (DMEM) supplemented with 4.5 g/l glucose, 4 mM glutamine, 50 units/m1 penicillin, 50 units/m1 streptomycin (available from Advanced Biotechnologies, Inc., Gaithersburg, Md.) and 10% calf serum (available from Sigma, St. Louis, […].). The cells were treated with trypsin-EDTA, spun down and plated at 2×10^6 per 15 cm dish in 20 m1 of DMEM containing 10% calf serum.
(§5) The m1-m5 muscarinic receptor subtypes were cloned substantially as described by Bonner et al., Science 237, 1987, p. 527, and Bonner et al., Neuron 1, 1988, p. 403. For the m2 and m4 receptors, the cells were co-transfected with DNA encoding a chimera between the Gq protein and the five carboxy-terminal amino acids of the Gi protein (the Gq-i5 construct is described by Conklin et al., Nature 363, 1993, p.274).
as §1
as §2, with “The plates were then placed in an incubator at 37° C. to equilibrate temperature and pH.” left out

A further data set addresses T3, m5 receptor (Homo sapiens, UniProt P08912).
T3 construct: expressed in transfected cells; host or cells: NIH 3T3 (ATCC CRL 1658)
T3 sequence (P08912 1-532): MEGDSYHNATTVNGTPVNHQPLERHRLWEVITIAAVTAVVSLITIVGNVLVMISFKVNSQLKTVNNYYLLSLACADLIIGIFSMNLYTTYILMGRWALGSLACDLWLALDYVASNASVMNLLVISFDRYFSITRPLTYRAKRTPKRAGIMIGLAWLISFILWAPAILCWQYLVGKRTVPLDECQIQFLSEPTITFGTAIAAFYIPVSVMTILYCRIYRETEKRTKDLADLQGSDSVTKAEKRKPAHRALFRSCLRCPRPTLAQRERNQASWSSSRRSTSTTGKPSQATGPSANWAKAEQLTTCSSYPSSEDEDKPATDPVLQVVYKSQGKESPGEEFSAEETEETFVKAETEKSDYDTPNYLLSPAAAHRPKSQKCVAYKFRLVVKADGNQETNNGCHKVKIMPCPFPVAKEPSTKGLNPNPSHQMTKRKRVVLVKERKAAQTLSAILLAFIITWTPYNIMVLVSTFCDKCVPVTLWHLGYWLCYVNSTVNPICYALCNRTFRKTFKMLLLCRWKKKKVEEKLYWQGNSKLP
Put plainly: R-SAT / NIH 3T3 cells transfected with m5 muscarinic receptor. The format is cell-based. The note with it: NIH3T3; m5; compound at 1.5 μM; maximum = response to 10 μM carbachol; read-out: Cellular response as a percentage of the maximum response of the cells.
Excerpt: as §3, §4, §5, §1
as §2, with “The plates were then placed in an incubator at 37° C. to equilibrate temperature and pH.” left out

The conditions of data set [1]: human, in vivo; cited from earlier work.

T2 sequence (P20309 whole entry): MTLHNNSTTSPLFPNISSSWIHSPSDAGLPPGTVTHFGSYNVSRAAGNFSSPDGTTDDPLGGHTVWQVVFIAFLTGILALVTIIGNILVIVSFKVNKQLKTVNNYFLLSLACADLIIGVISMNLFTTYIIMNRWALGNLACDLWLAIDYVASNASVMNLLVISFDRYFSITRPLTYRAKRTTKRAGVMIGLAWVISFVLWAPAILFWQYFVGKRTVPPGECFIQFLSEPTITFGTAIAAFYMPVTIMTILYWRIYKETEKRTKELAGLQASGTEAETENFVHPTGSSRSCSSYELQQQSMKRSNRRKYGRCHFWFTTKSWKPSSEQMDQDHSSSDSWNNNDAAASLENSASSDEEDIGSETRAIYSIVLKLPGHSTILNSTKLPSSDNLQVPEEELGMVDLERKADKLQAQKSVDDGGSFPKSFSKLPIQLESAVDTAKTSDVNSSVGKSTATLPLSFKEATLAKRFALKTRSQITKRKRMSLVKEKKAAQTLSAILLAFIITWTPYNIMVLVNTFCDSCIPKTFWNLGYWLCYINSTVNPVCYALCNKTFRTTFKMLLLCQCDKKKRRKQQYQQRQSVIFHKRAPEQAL

As for `CCCCC1CCN(CCCC(=O)c2ccccc2OC)CC1` [F, 4-n-Butyl-1-[4-(2-methoxyphenyl)-4-oxo1-butyl]piperidine], the values for the Emax at 1.5 µM on m1 receptor, on m3 receptor and at m5 receptor were 65%, 9% and 5%, respectively.

Turning to `CCCCC1CCN(CCCC(=O)c2ccccc2)CC1` [G, 4-n-Butyl-1-[4-phenyl-4-oxo-1-butyl]piperidine], the Emax at 1.5 µM amounted to 66% on m1 receptor, 16% at m3 receptor and 7% on m5 receptor.

With `CCCCC1CCN(CCCC(=O)c2ccccc2O)CC1` [C, 4-n-Butyl-1-[4-(2-hydroxyphenyl)-4-oxo-1-butyl]piperidine], the figures for the Emax at 1.5 µM on m1 receptor, on m3 receptor and on m5 receptor were 91%, 4% and 0%, respectively.

In the case of `Nc1c2c(nc3ccccc13)CCCC2` [Tacrine, 9-amino-1,2,3,4-tetrahydroacridine], in data set [1], the “patients with elevated liver transaminases (hepatotoxicity)” value is listed as “about 30%” and the “patients with gastrointestinal side effects” value is given as “about a third”.

Regarding `CCCCC1CCN(CCCC(=O)c2ccc(C)cc2C)CC1` [E, 4-n-Butyl-1-[4-(2,4-dimethylphenyl)-4-oxo-1-butyl]piperidine], the Emax at 1.5 µM on m1 receptor was 42%; on m3 receptor, 9%; on m5 receptor, -3%.

With `CCCCC1CCN(CCCC(=O)c2ccccc2OCC)CC1` [B, 4-n-Butyl-1-[4-(2ethoxyphenyl)-4-oxo-1-butyl]piperidine], the Emax at 1.5 µM at m1 receptor is 76%; on m3 receptor, 7%; on m5 receptor, -6%.

As for `CCCCC1CCN(CCCC(=O)c2cccc(C)c2C)CC1` [D, 4-n-Butyl-1-[4-(2,3-dimethylphenyl)-4-oxo-1-butyl]piperidine], the Emax at 1.5 µM at m1 receptor amounted to 72%; at m3 receptor, 13%; on m5 receptor it was 2%.

Source of the values: patent publication US7485651B2, “Compounds with activity on muscarinic receptors” (Acadia Pharmaceuticals, Inc., priority 1998, dated 2009).
